Where “and” joins values, the source holds several entries; their conditions need not be identical. Equal values may be shown once.

The target of one experiment is T1, HIV-1 protease (Human immunodeficiency virus type 1 group M subtype B, UniProt P04585).
T1 construct: purified HIV-1 protease
The experiment in a line: biochemical. The experiment is classed as biochemical.
Conditions: not given
Here is the method: 1. Proteolytic activity of purified HIV-1 protease was routinely measured using the chromogenic assay developed by Richards et al. (J. Biol. Chem. 265: 7733 (1990)). Synthetic peptide His-Lys-Ala-Arg-Val-Leu-Phe (pNO2)-Glu-Ala-Nle-Ser-NH2 (American Peptide Company) was used as the substrate.
2. The assay was carried out in 0.5M NaCl, 50 mM MES pH 5.6, 2% DMSO (dimethylsulfoxide) at 37° C. Cleavage of the scissile bond between leucine and paranitro-phenylalanine (Phe(pNO2)) was assayed by spectrophotometric monitoring of the decrease in absorbance at 305 nm. Initial velocity was determined as the rate of decline of absorbance during the first 100 seconds of reaction.
3. […] Between 15-25 concentrations of inhibitor were added and velocity of reaction was measured at each of the concentrations, as described above.
4. Inhibition constants were calculated using the method of Jackson et al. (Adv. in Enzyme Regulation 22: 187 (1984)).
What is called IC50 is the point on the concentration scale where inhibition reaches its midpoint. A lower IC50 goes with greater potency in that assay. The Ki is a measure of affinity in units of concentration, obtained from inhibition or displacement. `CC(C)(C)NC(=O)c1c(CCC(O)Cc2ccc3ccccc3c2C(=O)NC(C)(C)C)ccc2ccccc12` (single isomer, unassigned) [Example 49]: the IC50 turned out to be 0.88 µM and the affinity corresponds to a Ki of 0.48 µM.

The experiment is the same for the next values; noted with them: 0.5M NaCl, 50 mM MES pH 5.6, 2% DMSO, 37° C., 200 μM substrate.
As to `CC(C)(C)NC(=O)c1ccccc1C#CC(O)Cc1ccccc1C(=O)NC(C)(C)C` (centres unmarked) [Example 26], the IC50 is more than 200 µM.

Molecule `Cc1cc(CC(O)CCc2ccccc2C(=O)N(CCO)C(C)(C)C)c(C(=O)N(CCO)C(C)(C)c2ccccc2)cc1C` (centres unmarked) [Example 90] showed a concentration for half-maximal inhibition (IC50) of 0.2 µM and an inhibition constant (Ki) of 0.176 µM. As for `CC(C)N1CCC(CC(O)CCc2ccc3ccccc3c2C(=O)NC(C)(C)C)=C(C(=O)NC(C)(C)C)C1` (centres unmarked) [Example 48], half-maximal inhibition (IC50) required 70 µM. `CN(C)CC(C)(C)CNC(=O)c1ccccc1SCC(O)Cc1ccccc1C(=O)NC(C)(C)C` (centres unmarked) [Example 40] displayed an IC50 of more than 500 µM. The same measure, in the same setting: for `CN(C)CCNC(=O)c1ccccc1CC(O)CSc1ccccc1C(=O)NCCN(C)C` (centres unmarked) [Example 37] the value was more than 500 µM. The molecule `CN(C(=O)c1ccccc1CCC(O)Cc1ccccc1C(=O)N(C)C(C)(C)C)C(C)(C)C` (centres unmarked) [Example 55] came in with an IC50 of 6.3 µM.

As for `Cc1ccc(CCC(O)Cc2ccccc2C(=O)N(CCO)C2(C)CCCC2)c(C(=O)N(CCO)C(C)(C)C)c1` (centres unmarked) [Example 4], the IC50 was determined as 0.72 µM and the Ki came to 0.42 µM. For `CC(C)(C)NC(=O)[C@@H]1C[C@@H]2CCCC[C@@H]2CN1CC(O)CCc1ccccc1C(=O)N(CCO)C(C)(C)C` (single isomer, unassigned) [Example 29], the 50% inhibitory concentration (IC50) stood at 55 µM.

Turning to `CC(C)(C)NC(=O)c1cc(C(C)(C)C)ccc1CCC(O)Cc1ccc2ccccc2c1C(=O)NC(C)(C)C` (centres unmarked) [Example 7], the midpoint of inhibition, the IC50, lay at 1.02 µM and the Ki was 1.01 µM.

The molecule `CC(C)(C)NC(=O)c1ccccc1NCC(O)Cc1ccc2ccccc2c1C(=O)NC(C)(C)C` (centres unmarked) [Example 50] had an IC50 of 120 µM.

Consider `CC(C)(C)NC(=O)c1ccccc1SCC(O)Cc1ccc2ccccc2c1C(=O)NC(C)(C)C` (centres unmarked) [Example 52], for which it took 25 µM to reach half-maximal inhibition (IC50). As to `CC(C)(C)NC(=O)c1cc(C(C)(C)C)ccc1CC[C@@H](O)Cc1ccc2ccccc2c1C(=O)NC(C)(C)C` [Example 8], the IC50 is approximately 20 µM. Still for that read-out and setting: next, `CC(C)(C)NC(=O)c1ccccc1CC(O)CSc1ccccc1C(=O)NC(C)(C)C` (centres unmarked) [Example 23]: 75 to 100 µM.

For the molecule `CC(C)(C)NC(=O)c1cc2ccccc2cc1CCC(O)Cc1ccccc1C(=O)N(CCO)C(C)(C)C` (centres unmarked) [Example 60], it took 4.1 µM to reach half-maximal inhibition (IC50) and the affinity corresponds to a Ki of 2.7 µM. `CC(C)(C)NC(=O)c1ccccc1CC(O)CSc1ccccc1C(=O)N1CCOCC1` (centres unmarked) [Example 42]: the IC50 lay within 150 to 200 µM.

In turn, `CCc1ccc(CC(O)CCc2ccccc2C(=O)N(CCOCc2ccccc2)C(C)(C)c2ccccc2)c(C(=O)N(CCO)C(C)(C)c2ccccc2)c1` (centres unmarked) [Example 88] displayed a 50% inhibitory concentration (IC50) of 0.23 µM and a Ki of 0.075 µM.

`CC(C)(C)NC(=O)c1c(CCC(O)Cc2ccc3ccccc3c2C(=O)N(CCO)C(C)(C)C)ccc2ccccc12` (centres unmarked) [Example 14] registered an IC50 of 5.6 µM and a Ki of 5.4 µM. `CC(C)(C)NC(=O)c1cc(C(C)(C)C)ccc1CCC(O)Cc1ccc(C(C)(C)C)cc1C(=O)NC(C)(C)C` (centres unmarked) [Example 10] displayed an IC50 of 15 µM. In turn, `CC(C)(C)N(CCO)C(=O)c1ccccc1CCC(O)C(F)(F)c1ccccc1C(=O)N(CCO)C(C)(C)c1ccccc1` (centres unmarked) [Example 79] returned a concentration for half-maximal inhibition (IC50) of 3.5 µM and an inhibitory constant (Ki) of 3.2 µM. With `CC(C)(C)NC(=O)c1ccccc1CC(O)CSc1ccc2ccccc2c1C(=O)NC(C)(C)C` (centres unmarked) [Example 47], 50 µM corresponded to half-maximal inhibition (IC50). On to `Cc1ccc(CC(O)CCc2ccccc2C(=O)N(Cc2ccccc2)C(C)C)c(C(=O)N(CCO)C(C)(C)c2ccccc2)c1` (centres unmarked) [Example 86], for which the IC50 was determined as 0.448 µM and the affinity corresponds to a Ki of 0.379 µM.

The molecule `CC(C)(C)NC(=O)c1ccccc1SCC(O)CN1CCCCC1C(=O)NC(C)(C)C` (centres unmarked) [Example 22] yielded an IC50 of 60 µM. Consider `CC(C)(C)NC(=O)c1ccccc1CC(O)C(O)Cc1ccccc1C(=O)NC(C)(C)C` (centres unmarked) [Example 56], for which it took 64 µM to reach half-maximal inhibition (IC50) and the inhibition constant (Ki) was 56 µM. For `CC(C)(C)NC(=O)c1cc(C(C)(C)C)ccc1CCC(O)Cc1ccccc1C(=O)N(CCO)C(C)(C)C` (centres unmarked) [Example 35] the same measures were 1.19 µM and 0.84 µM. `COC(CSc1ccccc1C(=O)NC(C)(C)C)Cc1ccccc1C(=O)NC(C)(C)C` (centres unmarked) [Example 41] had an IC50 of more than 500 µM. With `CC(C)(C)NC(=O)c1c(CC(O)CCc2ccccc2C(=O)N(CCO)C(C)(C)C)ccc2ccccc12` (centres unmarked) [Example 3], the half-maximal inhibitory concentration (IC50) was 2.38 µM and the affinity, expressed as Ki, was 1.31 µM. With `CC(C)(C)N(CCO)C(=O)c1c(CCC(O)Cc2ccc3ccccc3c2C(=O)N(CCO)C(C)(C)C)ccc2ccccc12` (centres unmarked) [Example 6], half-maximal inhibition (IC50) was put at 30 µM. The molecule `CC(C)(C)N(CCO)C(=O)c1ccccc1CCC(O)C(F)c1ccccc1C(=O)N(CCO)C(C)(C)c1ccccc1` (centres unmarked) [Example 71] came in with an IC50 of 1.3 µM and a Ki of 0.879 µM. `CC(C)(C)NC(=O)c1ccccc1CCC(O)Cc1ccccc1C(=O)NC(C)(C)C` (centres unmarked) [Example 25] returned an IC50 of 18 µM. With `CC(C)(C)NC(=O)c1c(CCC(O)CCc2ccc3ccccc3c2C(=O)NC(C)(C)C)ccc2ccccc12` [Example 32], 7 µM corresponded to half-maximal inhibition (IC50). `CC(C)(C)NC(=O)c1ccccc1SCC(O)Cc1ccccc1C(=O)N(CCO)C(C)(C)C` (centres unmarked) [Example 36]: inhibition was half-maximal at 25 µM (IC50). As for `CC(C)(C)N(CCO)C(=O)c1ccccc1CCC(O)Cc1ccccc1C(=O)N(c1ccccc1)C(C)(C)C` (centres unmarked) [Example 68], 11.9 µM corresponded to half-maximal inhibition (IC50) and the Ki was found to be 5.8 µM. `CC(C)(C)N(CCO)C(=O)c1ccccc1CCC(O)CCc1ccccc1C(=O)N(CCO)C(C)(C)C` [Example 33] showed an IC50 of 6 µM. In the case of `CN(C)CCNC(=O)c1ccccc1SCC(O)Cc1ccccc1C(=O)NC(C)(C)C` (centres unmarked) [Example 39], the IC50 was more than 500 µM.

`CC(C)(C)N(CCO)C(=O)c1ccccc1CCC(=O)C(F)c1ccccc1C(=O)N(CCO)C(C)(C)c1ccccc1` (centres unmarked) [Example 70] gave a half-inhibitory concentration (IC50) of 9 µM. Still for that read-out and setting: next, `CC(C)(C)N(CCCO)C(=O)c1ccccc1CCC(O)Cc1ccccc1C(=O)N(CCOCCN1CCOCC1)C(C)(C)c1ccccc1` (centres unmarked) [Example 75]: 8 µM; `CC(C)(C)NC(=O)c1ccccc1SCC(O)c1ccccc1C(=O)NC(C)(C)C` (centres unmarked) [Example 17]: more than 200 µM; `CC(C)(C)NC(=O)c1ccccc1CC(O)CSc1ccc(NC(=O)c2ccncc2)cc1C(=O)NC(C)(C)C` (centres unmarked) [Example 45]: 60 µM.

`CC(C)(C)NC(=O)c1ccccc1NCC(O)Cc1ccc2ccccc2c1C(=O)NC(C)(C)C` (centres unmarked) [Example 51] had an IC50 of 120 µM.

As for `CC(C)(C)NC(=O)[C@@H]1C[C@@H]2CCCC[C@@H]2CN1CC(O)CCc1ccccc1C(=O)N(CCO)C(C)(C)C` (single isomer, unassigned) [Example 30], the concentration for half-maximal inhibition (IC50) came to 38 µM.

For the molecule `CC(C)(C)N(CCO)C(=O)c1ccccc1CCC(O)Cc1ccccc1C(=O)N(CCO)C(C)(C)Cc1ccccc1` (centres unmarked) [Example 61], the IC50 was found to be 1.33 µM and the Ki was 1.27 µM.

As for `CC(C)(C)NC(=O)c1cnccc1CC(O)CCc1ccc2ccccc2c1C(=O)NC(C)(C)C` (centres unmarked) [Example 11], the IC50 turned out to be 18 µM.

Staying with this experiment, now noted: at 10 (μM).
As for `CC(C)(C)NC(=O)c1c(CCC(O)Cc2ccccc2C(=O)N(c2ccccc2)C(C)(C)C)ccc2ccccc12` (centres unmarked) [Example 69], the “percent (inhibition)” value is on record as 40%. Consider `CC(C)(C)NC(=O)c1ccccc1CCC(O)Cc1ccccc1C(=O)N(Cc1ccccc1)C(C)(C)C` (centres unmarked) [Example 13], for which the “percent (inhibition)” value was 40%.

The same experiment, now with this note: at 20 (μM).
On to `CC(C)(C)NC(=O)c1cc2ccccc2cc1CCC(O)Cc1ccc2ccccc2c1C(=O)NC(C)(C)C` (centres unmarked) [Example 9], for which the “percent (inhibition)” value came out at 40%.

Still in this experiment, the particulars now being: at 100 (μM).
As for `CC(C)(C)NC(=O)c1ccccc1CCC(O)CN1CCCCC1C(=O)NC(C)(C)C` (centres unmarked) [Example 31], the “percent (inhibition)” value was 20% and 35%. The same measure, in the same setting: for `CC(O)(CCc1ccccc1C(=O)NC(C)(C)C)Cc1ccccc1C(=O)NC(C)(C)C` (centres unmarked) [Example 34] the value was 40%; for `CN(C(=O)c1c(CC(O)CCc2ccc3ccccc3c2C(=O)NC(C)(C)C)ccc2c1CNCC2)C(C)(C)C` (centres unmarked) [Example 59], 20%.

The same experiment, now with this note: at 200 (μM).
Consider `CC(C)(C)NC(=O)c1ccccc1CC(O)CSc1ccc([N+](=O)[O-])cc1C(=O)NC(C)(C)C` (centres unmarked) [Example 43], for which the “percent (inhibition)” value turned out to be 20%. In the case of `CC(C)(C)NC(=O)c1ccccc1C(O)CSc1ccccc1NC(=O)C(C)(C)C` (centres unmarked) [Example 21], the “percent (inhibition)” value was found to be 10%. The same measure, in the same setting: for `CC(C)(C)NC(=O)c1ccccc1CCC(O)C(O)CCc1ccccc1C(=O)NC(C)(C)C` (centres unmarked) [Example 57] the value was 93%; for `CC(C)(C)NC(=O)c1ccccc1/C=C\C(O)Cc1ccccc1C(=O)NC(C)(C)C` (centres unmarked) [Example 27], 40%; for `CC(C)(C)NC(=O)c1ccccc1CC(O)CSc1ccc(N)cc1C(=O)NC(C)(C)C` (centres unmarked) [Example 44], 20%. For `CC(=O)N1CCc2ccc(CC(O)CCc3ccc4ccccc4c3C(=O)NC(C)(C)C)c(C(=O)N(C)C(C)(C)C)c2C1` (centres unmarked) [Example 63], the “percent (inhibition)” value was determined as 40%.

The same experiment, now with this note: substrate, standard conditions; read-out: Michaelis constant (Km).
What is called Km is the concentration of substrate that gives half-maximal velocity. “His-Lys-Ala-Arg-Val-Leu-Phe (pNO2)-Glu-Ala-Nle-Ser-NH2 [reference compound]”: the Km stood at 52 ± 16 µM.

These data come from patent publication US5863950A, “HIV protease inhibitors” (Agouron Pharmaceuticals, Inc., priority 1994, dated 1999).
